Measured values from the supplement of paper PMC11451515.

Key:
Experiment in all cases: AUC of viability dose-response curve (% viability x log10 dose units); higher = less sensitive
Settings in all cases: 48 h
NOMO1 = system: NOMO1
Outline: (§1)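 Leukemia cells adapted to each medium were seeded at 500 or 1000 cells/well in 1536-well plates and dosed with library compounds in DMSO at 11 threefold doses from 47 μM to 0.79 nM for 48 h at 37°C. CellTiter-Glo One luminescence was normalised per plate to DMSO and cell-free wells, then fitted with a four-parameter log-logistic model over log10 doses. Area under the curve was taken from this fit by the trapezoidal rule, with curves above full viability scaled and curves failing quality control removed.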

P12-Ichikawa = system: P12-Ichikawa
Outline: as §1

SEM cells = system: SEM cells
Outline: as §1

[1] = RPMI 5 mM glucose + 10% dialyzed FBS

| SMILES | AUC of viability dose-response curve (NOMO1; HPLM + 10% dialyzed FBS) | AUC of viability dose-response curve (NOMO1; RPMI 5 mM glucose + 10% FBS) | AUC of viability dose-response curve (NOMO1; [1]) | AUC of viability dose-response curve (P12-Ichikawa; HPLM + 10% dialyzed FBS) | AUC of viability dose-response curve (P12-Ichikawa; RPMI 5 mM glucose + 10% FBS) | AUC of viability dose-response curve (P12-Ichikawa; [1]) | AUC of viability dose-response curve (SEM cells; HPLM + 10% dialyzed FBS) | AUC of viability dose-response curve (SEM cells; RPMI 5 mM glucose + 10% FBS) | AUC of viability dose-response curve (SEM cells; [1]) |
| --- | --- | --- | --- | --- | --- | --- | --- | --- | --- |
| C[C@H]1C[C@H]2[C@@H]3CCC4=CC(=O)C=C[C@]4(C)[C@H]3C(=O)C[C@]2(C)[C@@]1(O)C(=O)CO | 442 | 407 | 394 | 443 | 454 | 402 | 390 | 366 | 401 |
| CCC(=O)OC1CCC2C3CCC/4=C/C(=O)CC[C@@]4(C)C3CC[C@]12C (some centres undefined) | 457 | 456 | 458 | 471 | 473 | 466 | 450 | 460 | 448 |
| O=[N+]([O-])c1ccc(Nc2ccccc2-c2ccccc2)c2nonc12 | 451 | 432 | 418 | 432 | 432 | 433 |  |  |  |
| CC[C@H](NC(C)C)[C@H](O)c1ccc(O)c2[nH]c(=O)ccc12 | 470 | 447 | 463 | 451 | 462 | 456 | 442 | 472 | 474 |
| CCCOc1ccc2[nH]c(NC(=O)OC)nc2c1 | 286 | 259 | 273 | 226 | 217 | 257 | 240 | 169 | 199 |
| COc1ccc(CC2c3cc(OC)c(OC)cc3CC[N+]2(C)CCC(=O)OCCCCCOC(=O)CC[N+]2(C)CCc3cc(OC)c(OC)cc3C2Cc2ccc(OC)c(OC)c2)cc1OC (centres undefined) | 406 | 390 | 375 | 439 | 437 | 427 | 412 | 394 | 401 |
| C[C@]12CC[C@@H]3c4ccc(O)cc4CC[C@H]3[C@@H]1CC[C@@H]2O | 435 | 453 | 450 | 446 | 455 | 440 | 441 | 434 | 431 |
| CO[C@H]1/C=C/O[C@@]2(C)Oc3c(C)c(O)c4c(O)c(c(/C=N/N5CCN(C)CC5)c(O)c4c3C2=O)NC(=O)/C(C)=C\C=C\[C@H](C)[C@H](O)[C@@H](C)[C@@H](O)[C@@H](C)[C@H](OC(C)=O)[C@@H]1C | 431 | 461 | 461 | 441 | 445 | 430 |  |  |  |
| CCCC1=N[N](C)C2=C1\N=C(/NC2=O)C3=CC(=CC=C3OCC)[S+]([O-])(=O)N4CCN(C)CC4 | 400 | 385 | 403 | 407 | 385 | 381 | 349 | 356 | 364 |
| Cc1ccc(NC(=O)c2cccc(N(C)C)c2)cc1NC(=O)c1ccc(O)cc1 | 472 | 464 | 470 | 456 | 461 | 446 | 457 | 474 | 450 |
| CN(C)CC[C@H](CSc1ccccc1)Nc1ccc([S+](=O)([O-])NC(=O)c2ccc(N3CCN(Cc4ccccc4-c4ccc(Cl)cc4)CC3)cc2)cc1[N+](=O)[O-] | 363 | 388 | 324 | 321 | 354 | 338 | 195 | 218 | 191 |
| COc1cc(Nc2ncc(F)c(Nc3ccc4c(n3)N(COP(=O)(O)O)C(=O)C(C)(C)O4)n2)cc(OC)c1OC | 472 | 453 | 438 | 470 | 456 | 457 | 287 | 292 | 245 |
| OCCNC1CCCc2c1[nH]c1ccc(-c3ccccc3)cc21 (centres undefined) | 448 | 454 | 453 | 444 | 441 | 446 | 409 | 413 | 416 |
| Cc1cc(-c2nnc3n2CCCCC3)c(C)n1-c1ccccc1 | 464 | 473 | 470 | 464 | 462 | 470 | 470 | 424 | 472 |
| CN1CCN(Cc2ccc(NC(=O)Nc3ccc(Oc4cc(NC(=O)C5CC5)ncn4)cc3)cc2C(F)(F)F)CC1 | 271 | 278 | 275 | 285 | 289 | 291 |  |  |  |
| C[N]1N=CC2=C1C=C(C(=C2)OC3=CC=C(NC(=O)\C4=C\C=C(\C)N(C4=O)C5=CC=C(F)C=C5)C=C3F)C6=C[NH]N=C6 | 401 | 410 | 413 | 396 | 397 | 404 | 268 | 266 | 255 |
| CCCC(CCC)C(=O)[O-] | 448 | 469 | 453 | 468 | 472 | 476 | 461 | 442 | 468 |
| O=C(C[C@@H]1C/C=C\CCC(=O)O[C@H](c2ccccc2)CNC1=O)NCc1ccc(Cl)cc1 | 473 | 471 | 465 | 452 | 447 | 457 | 437 | 415 | 436 |
| O=C(O)CSCC(=O)NC1CCSC1=O (centres undefined) | 471 | 476 | 476 | 466 | 469 | 463 | 451 | 456 | 464 |
| CN(c1nccc(=O)[nH]1)C1CCN(c2nc3ccccc3n2Cc2ccc(F)cc2)CC1 | 466 | 459 | 471 | 466 | 460 | 462 | 474 | 424 | 473 |
| Cc1cc(SCc2sc(-c3ccc(C(F)(F)F)cc3)nc2C)ccc1OCC(=O)O | 447 | 443 | 463 | 471 | 459 | 458 | 453 | 459 | 457 |
| CCNC(=O)Nc1ccc(-c2nc3c(c(N4CCOC[C@@H]4C)n2)CCN(C2COC2)C3)cc1 | 352 | 407 | 380 | 370 | 358 | 356 | 366 | 353 | 378 |
| O=C([O-])[C@H](CC(=O)N1C[C@H]2CCCC[C@H]2C1)Cc1ccccc1 | 465 | 440 | 448 | 445 | 442 | 471 | 395 | 418 | 374 |
| C=CCc1cc(OC)c(O)c(C(=O)NCCO)c1 | 449 | 462 | 446 | 457 | 460 | 466 | 448 | 442 | 454 |

| SMILES | AUC of viability dose-response curve (NOMO1; HPLM + 10% dialyzed FBS) | AUC of viability dose-response curve (NOMO1; RPMI 5 mM glucose + 10% FBS) | AUC of viability dose-response curve (NOMO1; [1]) | AUC of viability dose-response curve (P12-Ichikawa; HPLM + 10% dialyzed FBS) | AUC of viability dose-response curve (P12-Ichikawa; RPMI 5 mM glucose + 10% FBS) | AUC of viability dose-response curve (P12-Ichikawa; [1]) | AUC of viability dose-response curve (SEM cells; HPLM + 10% dialyzed FBS) | AUC of viability dose-response curve (SEM cells; RPMI 5 mM glucose + 10% FBS) | AUC of viability dose-response curve (SEM cells; [1]) |
| --- | --- | --- | --- | --- | --- | --- | --- | --- | --- |
| NCCCCCC(=O)O | 469 | 459 | 447 | 463 | 469 | 463 | 398 | 459 | 389 |
| NCCCC(O)(P(=O)(O)O)P(=O)(O)O.O.O.O.[Na+] | 416 | 439 | 456 | 395 | 421 | 398 | 402 | 366 | 382 |
| CC(=O)Oc1cc2c(s1)CCN(C(C(=O)C1CC1)c1ccccc1F)C2.Cl (centres undefined) | 386 | 396 | 396 | 468 | 455 | 452 | 466 | 431 | 453 |
| CN(C)/[N+]([O-])=N/Oc1cc(ON[N+](=O)N2CCN(C(=O)c3cc(Cc4n[nH]c(=O)c5ccccc45)ccc3F)CC2)c([N+](=O)[O-])cc1[N+](=O)[O-] | 438 | 460 | 441 | 467 | 469 | 466 | 444 | 446 | 448 |
| COc1ccc2c(OCc3nnc4ccc(-c5ccccc5)nn34)ccnc2c1 | 443 | 471 | 466 | 459 | 477 | 428 |  |  |  |
| CC(C)(C)Cn1c(N)nc2ccc(-c3[nH]c(C(C)(C)C)nc3-c3ccc(F)cc3)nc21 | 367 | 392 | 405 | 422 | 414 | 401 | 407 | 347 | 412 |
| OC1=CC2=C(C(=O)\C=C(/O2)C3=CC=CC=C3)C(=C1O)O | 441 | 431 | 441 | 391 | 413 | 418 | 407 | 379 | 402 |
| O=C(NCCO[N+](=O)[O-])c1cccnc1 | 463 | 472 | 471 | 471 | 474 | 475 | 461 | 455 | 461 |
| CC1(C)Cc2c(sc(NC(=S)NC(=O)c3ccccc3)c2C(=O)O)CO1 | 466 | 456 | 458 | 469 | 476 | 470 | 452 | 474 | 427 |
| CN[C@H]1[C@H](O[C@@H]2[C@H](O[C@@H]3[C@@H](O)[C@@H](O)[C@@H](NC(=N)N)[C@@H](O)[C@H]3NC(=N)N)O[C@H](C)[C@@]2(O)C=O)O[C@@H](CO)[C@@H](O)[C@H]1O | 412 | 456 | 449 | 452 | 450 | 424 | 386 | 432 | 455 |
| NC(=O)c1ccc(-c2nc(-c3ccc4c(c3)OCO4)c(-c3ccccn3)[nH]2)cc1 | 473 | 466 | 472 | 457 | 429 | 452 |  |  |  |
| Cn1cnc(-c2cc3nccc(Oc4ccc(NC(=S)NC(=O)Cc5ccccc5)cc4F)c3s2)c1 | 393 | 395 | 397 | 391 | 374 | 395 |  |  |  |
| C=CC(=O)Nc1cccc(Oc2nc(Nc3ccc(N4CCN(C)CC4)cc3OC)ncc2Cl)c1 | 325 | 355 | 362 | 374 | 351 | 365 |  |  |  |
| O=C(O)[C@@H](c1ccc(OCc2ccc3ccccc3n2)cc1)C1CCCC1 | 466 | 470 | 454 | 450 | 435 | 458 |  |  |  |
| COCCCOc1ccnc(C[S+]([O-])c2nc3ccccc3[nH]2)c1C (centres undefined) | 467 | 475 | 460 | 464 | 450 | 449 |  |  |  |
| CNC(=O)c1ccc(N2C(=S)N(c3ccc(C#N)c(C(F)(F)F)c3)C(=O)C2(C)C)cc1F | 457 | 472 | 460 | 453 | 456 | 457 |  |  |  |
| FC1=CC=C(CN2\C=C/C=C(/C(=O)N[C@@H](COC3=CC4=C(NC(=O)N4)C=C3)C5=CC=CC=C5)C2=O)C=C1F |  |  |  | 430 | 365 | 375 | 373 | 409 | 365 |
| CCN1\C=C(C(O)=O)/C(=O)C2=C1C=C(N3CCN(C)CC3)C(=C2)F |  |  |  | 437 | 437 | 426 | 472 | 458 | 450 |
| C[C@H](NC(=O)Cc1cc(F)cc(F)c1)C(=O)N[C@@H]1C(=O)N(C)c2ccccc2-c2ccccc21 | 386 | 417 | 434 |  |  |  | 373 | 309 | 362 |
| COc1ccc(C(=O)CC(=O)c2ccc(C(C)(C)C)cc2)cc1 | 449 | 458 | 465 | 471 | 473 | 476 |  |  |  |
| C/C(=C\c1csc(C)n1)[C@@H]1C[C@@H]2O[C@@H]2CCC[C@H](C)[C@H](O)[C@@H](C)C(=O)C(C)(C)[C@@H](O)CC(=O)O1 | 146 | 93 | 138 |  |  |  |  |  |  |
| O=C(c1ccc(/C=C/c2n[nH]c3ccccc23)cc1)N1CCNCC1 | 434 | 387 | 383 | 332 | 331 | 346 |  |  |  |
| CC(=O)OCC(=O)[C@@]12OC(C)(C)O[C@@H]1C[C@H]3[C@@H]4C[C@H](F)C/5=C/C(=O)/C=C\[C@]5(C)[C@@]4(F)[C@@H](O)C[C@]23C | 474 | 440 | 420 | 393 | 370 | 344 |  |  |  |
